Values joined by “and” are separate entries in the source; they are usually repeats but may differ in a detail not shown here. Equal entries are not always repeated. Inconclusive results and toxic doses are left out.

The subject of this experiment is L1210 leukemia ip in BDF1 mice, survival T/C. Nature of the experiment: NCI In Vivo Anticancer Drug Screen. Data for tumor model L1210 Leukemia (intraperitoneal) in B6D2F1 (BDF1) mice. The conditions noted are these: endpoint: mean survival time, higher = longer survival. The method, boiled down:
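Survival endpoint. Drug-treated group vs vehicle group, expressed as T divided by C. Tumor passaged by transplantation.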

Where [1] appears, read: dose: 100.0 mg/kg/injection, schedule: Q01DX001 (ip), vehicle: saline.
Setting [2] is: dose: 200.0 mg/kg/injection, schedule: Q01DX001 (ip), vehicle: saline.
The mark [3] stands for this setting: dose: 400.0 mg/kg/injection, schedule: Q01DX001 (ip), vehicle: saline.
[4] abbreviates: dose: 100.0 mg/kg/injection, schedule: Q04DX002 (ip), vehicle: saline with Tween-80.
[5] abbreviates: dose: 200.0 mg/kg/injection, schedule: Q04DX002 (ip), vehicle: saline with Tween-80.
[6] abbreviates: dose: 400.0 mg/kg/injection, schedule: Q04DX002 (ip), vehicle: saline with Tween-80.
Setting [7] is: dose: 100.0 mg/kg/injection, schedule: Q01DX009 (ip), vehicle: saline with Tween-80.
Where [8] appears, read: dose: 100.0 mg/kg/injection, schedule: Q04DX003 (ip), vehicle: saline with Tween-80.
[9] abbreviates: dose: 200.0 mg/kg/injection, schedule: Q01DX009 (ip), vehicle: saline with Tween-80.
Where [10] appears, read: dose: 200.0 mg/kg/injection, schedule: Q04DX003 (ip), vehicle: saline with Tween-80.
Where [11] appears, read: dose: 400.0 mg/kg/injection, schedule: Q01DX009 (ip), vehicle: saline with Tween-80.
[12] abbreviates: dose: 400.0 mg/kg/injection, schedule: Q04DX003 (ip), vehicle: saline with Tween-80.
Setting [13] is: dose: 12.5 mg/kg/injection, schedule: Q04DX003 (ip), vehicle: saline.
[14] abbreviates: dose: 25.0 mg/kg/injection, schedule: Q04DX003 (ip), vehicle: saline.
Where [15] appears, read: dose: 50.0 mg/kg/injection, schedule: Q04DX003 (ip), vehicle: saline.
Where [16] appears, read: dose: 100.0 mg/kg/injection, schedule: Q04DX002 (ip), vehicle: saline.
Setting [17] is: dose: 50.0 mg/kg/injection, schedule: Q01DX001 (ip), vehicle: saline.

Turning to `CCCCc1ccc(NC(=O)N(CCCl)N=O)cc1`, the T/C reads like this: (dose: 6.0 mg/kg/injection, schedule: Q01DX009 (ip), vehicle: carboxymethylcellulose (CMC)) 156 % of control; (dose: 33.0 mg/kg/injection, schedule: Q01DX009 (ip), vehicle: carboxymethylcellulose (CMC)) 175 % of control; (dose: 37.5 mg/kg/injection, schedule: Q01DX001 (ip), vehicle: carboxymethylcellulose (CMC)) 163 % of control; (dose: 50.0 mg/kg/injection, schedule: Q01DX009 (ip), vehicle: carboxymethylcellulose (CMC)) 180 % of control; (dose: 75.0 mg/kg/injection, schedule: Q01DX001 (ip), vehicle: carboxymethylcellulose (CMC)) 194 % of control; (dose: 75.0 mg/kg/injection, schedule: Q01DX009 (ip), vehicle: carboxymethylcellulose (CMC)) 106 % of control. The T/C reads like this: (dose: 75.0 mg/kg/injection, schedule: Q04DX003 (ip), vehicle: saline with Tween-80) 120 % of control; (dose: 112.5 mg/kg/injection, schedule: Q01DX009 (ip), vehicle: carboxymethylcellulose (CMC)) 87 % of control; (dose: 150.0 mg/kg/injection, schedule: Q01DX001 (ip), vehicle: carboxymethylcellulose (CMC)) 260 % of control.
`COC(=O)C1(C)COP(=O)(N2CC2C)OC1` (stereo unspecified): the T/C by setting is: under setting [1], 101 % of control; under setting [2], 101 % of control; under setting [3], 97 % of control.
Consider `CC(=O)[O][Hg][c]1cc2c(cc1O)Cc1cc([N+](=O)[O-])ccc1-2`, for which the T/C runs as follows: (dose: 12.5 mg/kg/injection, schedule: Q01DX001 (ip), vehicle: carboxymethylcellulose (CMC)) 105 % of control; (dose: 25.0 mg/kg/injection, schedule: Q01DX001 (ip), vehicle: carboxymethylcellulose (CMC)) 100 % of control; (dose: 50.0 mg/kg/injection, schedule: Q01DX001 (ip), vehicle: carboxymethylcellulose (CMC)) 97 % of control.
For `NCCC(=O)NO`, the T/C was 98 % of control under setting [1], 88 % of control under setting [2] and 106 % of control under setting [3].
Consider `CC1CC(=O)NC(=O)N1Cc1ccccc1` (stereo unspecified), for which the T/C was 91 % of control (dose: 100.0 mg/kg/injection, schedule: Q01DX Z (ip), vehicle: methylcellulose (MC)) and 92 % of control (dose: 200.0 mg/kg/injection, schedule: Q01DX Z (ip), vehicle: methylcellulose (MC)).
For `Cc1ccc(N=Cc2cc(Br)ccc2O)cc1Cl`, the T/C under setting [4] is 107 % of control, the T/C under setting [5] was 107 % of control and the T/C under setting [6] was 96 % of control.
On to `O=C1CCC(c2ccccc2)c2ccccc21` (stereo unspecified), for which the T/C by setting is: (dose: 100.0 mg/kg/injection, schedule: Q01DX001 (ip), vehicle: Klucel (hydroxypropylcellulose) (HPC)) 99 % of control; (dose: 200.0 mg/kg/injection, schedule: Q01DX001 (ip), vehicle: Klucel (hydroxypropylcellulose) (HPC)) 97 % of control; (dose: 400.0 mg/kg/injection, schedule: Q01DX001 (ip), vehicle: Klucel (hydroxypropylcellulose) (HPC)) 100 % of control.
As to `COc1cc([N+](=O)[O-])ccc1NC(=S)NC(=O)c1ccc(Cl)cc1Cl`, the T/C was 92 % of control (dose: 100.0 mg/kg/injection, schedule: Q01DX001 (ip), vehicle: saline with Tween-80); 91 % of control and 92 % of control under setting [7]; 104 % of control and 87 % of control under setting [4]; 98 % of control under setting [8]; 92 % of control (dose: 200.0 mg/kg/injection, schedule: Q01DX001 (ip), vehicle: saline with Tween-80); 95 % of control and 97 % of control under setting [9]. The T/C is, setting by setting: under setting [5], 93 % of control and 97 % of control; under setting [10], 92 % of control; (dose: 400.0 mg/kg/injection, schedule: Q01DX001 (ip), vehicle: saline with Tween-80) 90 % of control; under setting [11], 93 % of control and 94 % of control; under setting [6], 95 % of control and 87 % of control; under setting [12], 88 % of control.
As to `CCOC(=O)C(C(=O)OCC)C(=O)OCC`, the T/C was 102 % of control under setting [1], 102 % of control under setting [2] and 105 % of control under setting [3].
For `CC[N+](C)(CC)CCN1c2ccccc2Sc2ccccc21`, the T/C is 91 % of control under setting [13]; 94 % of control and 86 % of control under setting [14]; 86 % of control and 88 % of control under setting [15].
`CCOC(=O)/C(C#N)=C/c1cccn1Cc1cc(OC)cc(OC)c1`: the T/C (dose: 25.0 mg/kg/injection, schedule: Q04DX002 (ip), vehicle: saline) was 111 % of control; the T/C (dose: 50.0 mg/kg/injection, schedule: Q04DX002 (ip), vehicle: saline) is 101 % of control; the T/C under setting [16] is 94 % of control.
As to `CC(Br)CCON1C(=O)c2ccccc2C1=O` (stereo unspecified), the T/C by setting is: under setting [17], 112 % of control; under setting [1], 102 % of control; under setting [2], 96 % of control; under setting [3], 96 % of control.
On to `Cc1cc(S(=O)(=O)c2cc(C)c(O)c(C(=O)O)c2)cc(C(=O)O)c1O`, for which the T/C runs as follows: (dose: 100.0 mg/kg/injection, schedule: Q04DX002 (ip), vehicle: carboxymethylcellulose (CMC)) 95 % of control; (dose: 200.0 mg/kg/injection, schedule: Q04DX002 (ip), vehicle: carboxymethylcellulose (CMC)) 98 % of control.
As for `CCOc1ccc(NC(=O)C(C(C)N2CCCCC2)N2CCCCC2)cc1` (stereo unspecified), the T/C is 94 % of control (dose: 12.5 mg/kg/injection, schedule: Q01DX001 (ip), vehicle: saline); 95 % of control (dose: 12.5 mg/kg/injection, schedule: Q01DX009 (ip), vehicle: saline); 97 % of control under setting [13]; 95 % of control (dose: 25.0 mg/kg/injection, schedule: Q01DX001 (ip), vehicle: saline); 92 % of control (dose: 25.0 mg/kg/injection, schedule: Q01DX009 (ip), vehicle: saline); 95 % of control under setting [14]. The T/C is, setting by setting: under setting [17], 90 % of control; (dose: 50.0 mg/kg/injection, schedule: Q01DX009 (ip), vehicle: saline) 91 % of control; under setting [15], 92 % of control.
Regarding `CCOC(=O)CCCc1c[nH]c2ccccc12`, the T/C by setting is: under setting [7], 101 % of control; under setting [8], 95 % of control; under setting [9], 101 % of control; under setting [10], 100 % of control; under setting [11], 102 % of control; under setting [12], 95 % of control.
Take `CN(C)Cc1ccccc1C(=O)C(c1ccccc1)c1ccccc1`: the T/C by setting is: (dose: 55.0 mg/kg/injection, schedule: Q01DX Z (ip), vehicle: methylcellulose (MC)) 100 % of control; (dose: 83.0 mg/kg/injection, schedule: Q01DX Z (ip), vehicle: methylcellulose (MC)) 94 % of control.
On to `O=C1C=C2CCCC2CC1` (stereo unspecified), for which the T/C (dose: 75.0 mg/kg/injection, schedule: Q01DX001 (ip), vehicle: other) was 97 % of control; the T/C (dose: 75.0 mg/kg/injection, schedule: Q04DX003 (ip), vehicle: other) is 93 % of control; the T/C (dose: 150.0 mg/kg/injection, schedule: Q01DX001 (ip), vehicle: other) is 92 % of control; the T/C (dose: 150.0 mg/kg/injection, schedule: Q04DX003 (ip), vehicle: other) is 98 % of control; the T/C (dose: 300.0 mg/kg/injection, schedule: Q01DX001 (ip), vehicle: other) is 94 % of control; the T/C (dose: 300.0 mg/kg/injection, schedule: Q04DX003 (ip), vehicle: other) is 92 % of control.
As to `CCc1nnc2cc(C)ccn12`, the T/C runs as follows: (dose: 100.0 mg/kg/injection, schedule: Q01DX001 (ip), vehicle: other) 98 % of control; (dose: 100.0 mg/kg/injection, schedule: Q04DX003 (ip), vehicle: other) 98 % of control; (dose: 200.0 mg/kg/injection, schedule: Q01DX001 (ip), vehicle: other) 107 % of control; (dose: 200.0 mg/kg/injection, schedule: Q04DX003 (ip), vehicle: other) 98 % of control; (dose: 400.0 mg/kg/injection, schedule: Q01DX001 (ip), vehicle: other) 107 % of control.
In the case of `C[N+](C)(N)Cc1ccc(C[N+](C)(C)N)cc1`, the T/C reads like this: under setting [16], 108 % of control; (dose: 200.0 mg/kg/injection, schedule: Q04DX002 (ip), vehicle: saline) 97 % of control.
As to `O=c1cccc(CCCCCCc2cccc(=O)[nH]2)[nH]1`, the T/C by setting is: under setting [1], 106 % of control; under setting [2], 95 % of control; under setting [3], 96 % of control.
